Laboratory results published in paper PMC4698308, “A new amino acid substitution (Ala-205-Phe) in acetolactate synthase (ALS) confers broad spectrum resistance to ALS-inhibiting herbicides” (Planta, 2015).
pIC50: −log10 of the molar value. Like-named read-outs stand apart in the source and are kept apart here.

Assays:
[1] = target: T1, recombinant Arabidopsis thaliana ALS wild-type enzyme (WT—sensitive) (Arabidopsis thaliana, UniProt P17597); assay: biochemical
T1 construct: Protein constructs contained an 85 amino acid N-terminal deletion (chloroplast transit peptide); Hexa-histidine tag (N); made in house
Protocol: (§1) Effects of SNPs identified in sequencing analysis on ALS activity were studied using A. thaliana. The ALS gene from A. thaliana and derivatives thereof were de novo synthesized and subcloned into pET-24d(+) (Life Technologies. Grand Island, NY, USA) using NcoI and XhoI restriction sites. Protein constructs contained an 85 amino acid N-terminal deletion (chloroplast transit peptide) and the addition of an N-terminal Hexa-histidine tag to facilitate purification.
(§2) Lysis was performed by at least two passes through a fluidizer, followed by centrifuging at 80000×g for 30 min at 4 °C. […] Fractions containing ALS protein were pooled and stored at −20 °C.
(§3) Inhibitors, purchased from Sigma as Pestanal standards (Sigma-Aldrich, Deisenhofen, Germany), were dissolved in DMSO and added to the reaction mixture. Inhibitors evaluated included imidazolinone, sulfonylurea, triazolopyrimidines, sulfonylamino-carbonyl- triazolinones, and pyrimidinyl (thio) benzoate herbicides. The reaction mixture was incubated at 30 °C for 60 min and stopped with 70 µl of H2SO4 (3 M). The reaction was then heated to 56 °C for 15 min to convert acetolactate into acetoin. […] For each inhibitor, resistance factors were calculated by dividing IC50 values for mutant and sensitive ALS.

[2] = test system: recombinant Arabidopsis thaliana ALS variant A205F; format: biochemical; conditions: IC50 mutant divided by IC50 sensitive ALS; max inhibitor concentration 1.00 × 10^−04 M
Protocol: as §1, §2, §3

[3] = test system: recombinant Arabidopsis thaliana ALS variant A205V; format: biochemical; conditions: IC50 mutant divided by IC50 sensitive ALS; max inhibitor concentration 1.00 × 10^−04 M
Protocol: as §1, §2, §3

[4] = test system: recombinant Arabidopsis thaliana ALS variant W574L; format: biochemical; conditions: IC50 mutant divided by IC50 sensitive ALS; max inhibitor concentration 1.00 × 10^−04 M
Protocol: as §1, §2, §3

[5] = test system: annual bluegrass (Poa annua L.); assay: Whole plant confirmation of target-site resistance (visual control and dry biomass 28 days after treatment); format: in vivo
Protocol: Progeny of all POAAN-R3 plants subjected to genetic sequencing (RP1–RP8) were surface seeded into separate 10.2 × 10.2 cm greenhouse pots (Dillen Products/Myers Industries, Inc. Middlefield, OH, USA.) filled with a peat moss growing medium (ProMix BX Mycorrhizae. Premier Tech Horticulture, Quakertown, PA, USA) on 5 January 2015. The susceptible annual bluegrass population (S) included in our sequencing analysis was also seeded in the same fashion.
After seeding, pots were placed inside a growth chamber (Conviron A1000. Controlled Environments Inc, Hendersonville, NC) configured to provide 14 h day at 19 °C and a 10 h night at 10 °C. Light intensity inside the chamber averaged 296 μmol m^−2 s^−1. Irrigation was applied to each pot daily using distilled water and a misting nozzle. Annual bluegrass emergence was first noted on 16 January 2015. Plants remained inside the growth chamber until 26 January 2015. On this date, seedlings of each plant (RP1–RP8, S) were transplanted into individual 164 cm^3 plastic conical containers (SC10 Super Cell Cone-tainer. Stuewe and Sons. Tangent, OR 97389) filled with Sequatchie silt loam (fine-loamy, siliceous, semiactive, thermic humic Hapludult) measuring 6.2 in soil pH and 2.1 % in organic matter content. Transplants were replicated such that 32 plastic conical containers were created for each annual bluegrass plant analyzed in previous experiments (RP1–RP8, S). Immediately after transplanting, plastic conical containers were placed in a glasshouse located at the University of Tennessee (Knoxville, TN, USA; 35.56, 83.56). Peak light intensity in this glasshouse averaged 714 μmol m^−2 s^−1 with day/night temperatures averaging 27/17 °C. Irrigation was applied daily using an overhead misting system and plants were not clipped prior to initiating this study.
Plants were allowed to acclimate to this glasshouse environment for 10 days prior to being treated with foramsulfuron (Revolver. Bayer Environmental Sciences. Research Triangle Park, NC, USA) at 29 g ha^−1, imazamox (Clearcast. BASF Corporation. Research Triangle Park, NC) at 140 g ha^−1, or simazine (Princep 4L. Syngenta Professional Products. Greensboro, NC) at 1120 g ha^−1. Per label recommendations, imazamox and simazine treatments included a non-ionic surfactant (Activator-90. Loveland Products Inc. Greeley, CO, USA) at 0.25 % v/v. All treatments were applied in an enclosed spray chamber (Generation III track sprayer. DeVries Manufacturing, Hollandale, MN, USA) using a water carrier at 215 L ha^−1 through an 8004 EVS nozzle (TeeJet, Technologies, Spraying Systems Co., Glendale Heights, IL, USA). These herbicide treatments were selected to confirm results of genetic sequencing that RP1–RP8 were resistant to sulfonylurea, imidazolinone, and photosystem II inhibiting herbicides. A non-treated control treatment was included with each resistant (RP1–RP8) and susceptible (S) plant for comparison. Herbicides were applied on 5 February 2015 when plants were at a two-to-three leaf stage, prior to annual bluegrass tiller formation.
Annual bluegrass control was visually assessed on a 0 (i.e., no control) to 100 % (i.e., complete kill) scale relative to the non-treated 28 days after treatment. After all control data had been collected, aboveground biomass was harvested from each plastic conical container at the soil line using scissors, dried at 100 °C for 3 days, and weighed.
Treatments were arranged as a 9 × 4 factorial with nine plant selections (i.e., RP1–RP8, S) and four herbicide treatments (i.e., foramsulfuron, imazamox, simazine, non-treated) in a completely randomized design with four replications and repeated in time and space during February 2015. Plants were the same age during both experimental runs.

[6] = concentration for 50 % inhibition of WT enzyme, max inhibitor concentration 1.00 × 10^−04 M, read-out: WT sensitivity [IC50]

T1 sequence (P17597 86-670): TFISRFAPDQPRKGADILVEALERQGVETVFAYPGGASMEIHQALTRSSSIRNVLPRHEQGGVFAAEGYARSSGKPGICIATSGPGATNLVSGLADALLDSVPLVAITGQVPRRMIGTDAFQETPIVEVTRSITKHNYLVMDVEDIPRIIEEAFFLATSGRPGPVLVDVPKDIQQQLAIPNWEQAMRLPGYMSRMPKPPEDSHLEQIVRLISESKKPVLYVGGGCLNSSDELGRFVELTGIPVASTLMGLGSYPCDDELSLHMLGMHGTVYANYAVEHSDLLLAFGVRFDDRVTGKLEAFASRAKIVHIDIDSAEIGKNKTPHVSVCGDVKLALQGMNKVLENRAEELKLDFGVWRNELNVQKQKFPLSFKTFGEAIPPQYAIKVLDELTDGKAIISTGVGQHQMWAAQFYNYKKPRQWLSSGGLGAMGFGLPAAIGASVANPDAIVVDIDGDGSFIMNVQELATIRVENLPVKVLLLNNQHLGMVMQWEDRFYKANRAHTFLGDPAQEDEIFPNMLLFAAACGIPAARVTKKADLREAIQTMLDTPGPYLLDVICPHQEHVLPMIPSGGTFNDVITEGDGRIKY

Row | SMILES | pIC50 [1, 6] | Resistance factor A205F [2] | Resistance factor A205V [3] | Resistance factor W574L [4] | pIC50 [1] | other results
1 | COc1cc(OC)nc(NC(=O)NS(=O)(=O)c2cc(CNS(C)(=O)=O)ccc2C(=O)O)n1 [Mesosulfuron] | 8.88 | 293 | 16 | 104 |  | 
2 | COc1cc(OC)nc(Sc2cccc(Cl)c2C(=O)O)n1 [Pyrithiobac] |  | 306 | 433 | 134,838 | 9.13 | 
3 | COc1nc(NC(=O)NS(=O)(=O)c2ccccc2C(F)(F)F)nc(C(F)(F)F)n1 [Tritosulfuron] | 7.73 | 5356 | 37 | 167 |  | 
4 | COc1cc(OC)nc(NC(=O)NS(=O)(=O)c2ncccc2C(=O)N(C)C)n1 [Nicosulfuron] |  | 1401 | 30 | 35 | 7.15 | 
5 | COc1cc(OC)n2nc(S(=O)(=O)Nc3c(Cl)ccc(C)c3Cl)nc2n1 [Metosulam] |  | 1656 | 34 | 107 | 9.36 | 
6 | COCc1cnc(C2=NC(C)(C(C)C)C(=O)N2)c(C(=O)O)c1 (centres unmarked) [Imazamox] |  |  | 34 | 34 | 5.53 | annual bluegrass control, resistant plants with the exception of RP6 ([5]; 28 days after treatment, summary over RP1–RP5, RP7, RP8): ≤ 11%; Annual bluegrass biomass RP1 ([5]; RP1, aboveground dry biomass 28 days after treatment, foramsulfuron 29, imazamox 140, simazine 1120 g ha^-1): 84 % of nontreated control; Annual bluegrass control RP1 ([5]; RP1 plants, 28 days after treatment, 2 to 3 leaf stage, foramsulfuron 29, imazamox 140, simazine 1120 g ha^−1): 2%; Annual bluegrass biomass RP2 ([5]; RP2, aboveground dry biomass 28 days after treatment, foramsulfuron 29, imazamox 140, simazine 1120 g ha^-1): 66 % of nontreated control; Annual bluegrass control RP2 ([5]; RP2 plants, 28 days after treatment, 2 to 3 leaf stage, foramsulfuron 29, imazamox 140, simazine 1120 g ha^−1): 0%; Annual bluegrass biomass RP3 ([5]; RP3, aboveground dry biomass 28 days after treatment, foramsulfuron 29, imazamox 140, simazine 1120 g ha^-1): 94 % of nontreated control; Annual bluegrass control RP3 ([5]; RP3 plants, 28 days after treatment, 2 to 3 leaf stage, foramsulfuron 29, imazamox 140, simazine 1120 g ha^−1): 0%; Annual bluegrass biomass RP4 ([5]; RP4, aboveground dry biomass 28 days after treatment, foramsulfuron 29, imazamox 140, simazine 1120 g ha^-1): 55 % of nontreated control; Annual bluegrass control RP4 ([5]; RP4 plants, 28 days after treatment, 2 to 3 leaf stage, foramsulfuron 29, imazamox 140, simazine 1120 g ha^−1): 0%; Annual bluegrass biomass RP5 ([5]; RP5, aboveground dry biomass 28 days after treatment, foramsulfuron 29, imazamox 140, simazine 1120 g ha^-1): 49 % of nontreated control; Annual bluegrass control RP5 ([5]; RP5 plants, 28 days after treatment, 2 to 3 leaf stage, foramsulfuron 29, imazamox 140, simazine 1120 g ha^−1): 3%; Annual bluegrass biomass RP6 ([5]; RP6, aboveground dry biomass 28 days after treatment, foramsulfuron 29, imazamox 140, simazine 1120 g ha^-1): 70 % of nontreated control; Annual bluegrass control RP6 ([5]; RP6 plants, 28 days after treatment, 2 to 3 leaf stage, foramsulfuron 29, imazamox 140, simazine 1120 g ha^−1): 16%; Annual bluegrass biomass RP7 ([5]; RP7, aboveground dry biomass 28 days after treatment, foramsulfuron 29, imazamox 140, simazine 1120 g ha^-1): 87 % of nontreated control; Annual bluegrass control RP7 ([5]; RP7 plants, 28 days after treatment, 2 to 3 leaf stage, foramsulfuron 29, imazamox 140, simazine 1120 g ha^−1): 4%; Annual bluegrass biomass RP8 ([5]; RP8, aboveground dry biomass 28 days after treatment, foramsulfuron 29, imazamox 140, simazine 1120 g ha^-1): 86 % of nontreated control; Annual bluegrass control RP8 ([5]; RP8 plants, 28 days after treatment, 2 to 3 leaf stage, foramsulfuron 29, imazamox 140, simazine 1120 g ha^−1): 0%; Annual bluegrass control S ([5]; susceptible (S) plants, 28 days after treatment, 2 to 3 leaf stage, foramsulfuron 29, imazamox 140, simazine 1120 g ha^−1): 93%; Annual bluegrass biomass S ([5]; susceptible (S), aboveground dry biomass 28 days after treatment, foramsulfuron 29, imazamox 140, simazine 1120 g ha^-1): 3 % of nontreated control
7 | CCCOc1nn(C(=O)[N-]S(=O)(=O)c2ccccc2C(=O)OC)c(=O)n1C.[Na+] [Propoxycarbazone] |  | 1185 | 20 | 309 |  | 
8 | COc1ncc(F)c2nc(S(=O)(=O)Nc3c(F)cccc3F)nn12 [Florasulam] | 8.46 | 1 | 89 | 370 |  | 
9 | COc1nn(C(=O)NS(=O)(=O)c2ccccc2OC(F)(F)F)c(=O)n1C [Flucarbazone] | 7.61 | 441 | 2 | 7 |  | 
10 | COc1cc(OC)nc(Sc2cccc3c2C(=O)OC3C)n1 (centres unmarked) [Pyriftalid] | 4.70 | 5 | 5 | 5 |  | 
11 | COc1nn(C(=O)NS(=O)(=O)c2c(C(=O)O)csc2C)c(=O)n1C [Thiencarbazone] | 7.61 | 62 | 8 | 16 |  | 
12 | COc1cc(OC)nc(Oc2cccc(Oc3nc(OC)cc(OC)n3)c2C(=O)O)n1 [Bispyribac] | 8.80 | 7 | 11 | 7944 |  | 
